Data: patent US3956487A, “Novel antifungal antibiotic substance, and agricultural and horticultural fungicidal composition containing said substance” (Nihon Tokushu Noyaku Seizo Kabushiki Kaisha, priority 1974, dated 1976)
Values after ≈ are worked out from the molar mass of the structure shown. Read-outs that look alike come from different tables or passages of the source.

Legend:
Sclerotinia rot fungus [1] = test: Preventive test on sclerotinia rot of bean leaves
Gray mold fungus [2] = test: Preventive test on gray mold of bean leaves
[3] = system: Brown rot (Sclerotinia cineria); test: Field test on brown rot of peach; format: in vivo; details: for Morbidity after 7 days since packaging: room temperature storage
Text: Test on Brown rot (Sclerotinia cineria) of peach (field test):
Both the morbidity upon harvest and morbidity of the fruit packed in a cardboard box for storage at room temperature were investigated.

[4] = system: Bacillus subtilis PCI 219
Sclerotinia rot fungus [5] = details: curative, 48 hours
Sclerotinia cinerea [6] = details: 200 mcg/ml solution, 2 days at 27°C
Vibrio comma 904 = test: MIC, agar dilution method; format: cell-based
Botorytis cinerea = details: 48 hours
[7] = system: Staphylococcus aureus FDA 209 p
Mice = details: for LD50: mice; for No abnormality (dose): mouse, in vivo
[8] = not given; remark: listed apart in the source
Gray mold fungus [9] = test: Curative test on gray mold of bean leaves; details: 48 hours
crops = details: ordinary dosages
Sclerotinia cinerea [10] = details: 72 hours
Xanthomonas citri = test: MIC, agar dilution method; format: cell-based
[11] = 50 ppm, sprayed twice, 7-day interval

CC(N)C(=O)NC1COC(O)C(N)C1O.Cl (stereo not shown)
Diameter of disease spot (Sclerotinia rot fungus [1]; 25 ppm): 10 mm
Disease spot inhibiting rate (Sclerotinia rot fungus [1]; 25 ppm): 71%
Diameter of disease spot (Sclerotinia rot fungus [1]; 50 ppm): 0 mm
Disease spot inhibiting rate (Sclerotinia rot fungus [1]; 50 ppm): 100%
Diameter of disease spot (Gray mold fungus [2]; 25 ppm): 23 mm
Disease spot inhibiting rate (Gray mold fungus [2]; 25 ppm): 23%
Diameter of disease spot (Gray mold fungus [2]; 50 ppm): 10 mm
Disease spot inhibiting rate (Gray mold fungus [2]; 50 ppm): 67%

CCCCNC(=O)n1c(NC(=O)OC)nc2ccccc21 [BENLATE, methyl-1-(butylcarbamoyl)-2-benzimidazole carbamate]
Morbidity upon harvest ([3]; 50% product × 1000): 0.3
Morbidity after 7 days since packaging ([3]; 50% product × 1000): 46.1

CC(N)C(=O)NC1COC(O)C(N)C1O (stereo not shown)
minimum inhibitory concentration (MIC) (Saccharomyces cerevisiae; 48 hours): > 100 µg/mL
minimum inhibitory concentration (MIC) (Saccharomyces cerevisiae; 72 hours): > 100 µg/mL
minimum inhibitory concentration (MIC) (Trichophyton rubrum; 48 hours): 100 µg/mL (≈ 456 µM)
minimum inhibitory concentration (MIC) (Trichophyton rubrum; 72 hours): > 100 µg/mL
minimum inhibitory concentration (MIC) (Sclerotinia sclerotiorum; 48 hours): 1.56 µg/mL (≈ 7.12 µM)
minimum inhibitory concentration (MIC) (Sclerotinia sclerotiorum; 72 hours): 3.12 µg/mL (≈ 14.2 µM)
stability on standing (allowed to stand for a long time): activity became lower and it coloured in yellow
retention of activity (in an acidic solution): retains its activity
stability (in the form of aqueous solution): very stable
retention of activity (solution neutral to alkaline): activity is reduced
minimum inhibitory concentration (MIC) ([4]; 24 hours): > 100 µg/mL
minimum inhibitory concentration (MIC) ([4]; 48 hours): > 100 µg/mL
no trouble (concentration) (Young carp): 250 ppm
Morbidity upon harvest [3, 11]: 0
Morbidity after 7 days since packaging [3, 11]: 0
minimum inhibitory concentration (MIC) (Botorytis fabae; 48 hours): 6.25 µg/mL (≈ 28.5 µM)
minimum inhibitory concentration (MIC) (Botorytis fabae; 72 hours): 25 µg/mL (≈ 114 µM)
minimum inhibitory concentration (MIC) (Ophiobolus miyabianus; 48 hours): 25 µg/mL (≈ 114 µM)
minimum inhibitory concentration (MIC) (Ophiobolus miyabianus; 72 hours): 25 µg/mL (≈ 114 µM)
minimum inhibitory concentration (MIC) (Alternaria japonica; 48 hours): 50 µg/mL (≈ 228 µM)
minimum inhibitory concentration (MIC) (Alternaria japonica; 72 hours): 50 µg/mL (≈ 228 µM)
minimum inhibitory concentration (MIC) (Xanthomonas oryzae; 48 hours): 50 µg/mL (≈ 228 µM)
minimum inhibitory concentration (MIC) (Xanthomonas oryzae; 72 hours): 100 µg/mL (≈ 456 µM)
minimum inhibitory concentration (MIC) (Alternaria kikuchiana; 48 hours): > 100 µg/mL
minimum inhibitory concentration (MIC) (Alternaria kikuchiana; 72 hours): > 100 µg/mL
minimum inhibitory concentration (MIC) (Mycobacterium ATCC 607; 24 hours): > 100 µg/mL
minimum inhibitory concentration (MIC) (Mycobacterium ATCC 607; 48 hours): > 100 µg/mL
Diameter of the disease spot after spraying (Sclerotinia rot fungus [5]; 50 ppm): 19.6 mm
Disease spot inhibiting rate (Sclerotinia rot fungus [5]; 50 ppm): 62%
Diameter of the disease spot after spraying (Sclerotinia rot fungus [5]; 100 ppm): 16.3 mm
Disease spot inhibiting rate (Sclerotinia rot fungus [5]; 100 ppm): 76%
inhibition zone diameter (Sclerotinia cinerea [6]): about 35 mm
minimum inhibitory concentration (MIC) (Vibrio comma 904; 24 hours): 12.5 µg/mL (≈ 57 µM)
minimum inhibitory concentration (MIC) (Vibrio comma 904; 48 hours): 100 µg/mL (≈ 456 µM)
minimum inhibitory concentration (MIC) (Aspergillus niger; 48 hours): > 100 µg/mL
minimum inhibitory concentration (MIC) (Aspergillus niger; 72 hours): > 100 µg/mL
minimum inhibitory concentration (MIC) (Botorytis cinerea): 6.25 µg/mL (≈ 28.5 µM)
antibacterial action (various bacteria): only weak antibacterial action
minimum inhibitory concentration (MIC) ([7]; 24 hours): > 100 µg/mL
minimum inhibitory concentration (MIC) ([7]; 48 hours): > 100 µg/mL
LD50 (Mice; intravenous injection): 160 mg/kg
LD50 (Mice; oral administration): 750 mg/kg
No abnormality (dose) (Mice; iv): 125 mg/kg
No abnormality (dose) (Mice; po): 500 mg/kg
Solubility in dimethyl sulfoxide ([8]; dimethyl sulfoxide): Soluble
Solubility in ethanol ([8]; ethanol): sparingly soluble
Solubility in methanol ([8]; methanol): Soluble
minimum inhibitory concentration (MIC) (Sarcina lutea PCI 1001; 24 hours): 3.12 µg/mL (≈ 14.2 µM)
minimum inhibitory concentration (MIC) (Sarcina lutea PCI 1001; 48 hours): 3.12 µg/mL (≈ 14.2 µM)
Diameter of the disease spot after spraying (Gray mold fungus [9]; 25 ppm): 19.3 mm
Disease spot inhibiting rate (Gray mold fungus [9]; 25 ppm): 59%
Diameter of the disease spot after spraying (Gray mold fungus [9]; 50 ppm): 17.0 mm
Disease spot inhibiting rate (Gray mold fungus [9]; 50 ppm): 75%
Diameter of the disease spot after spraying (Gray mold fungus [9]; 100 ppm): 16.3 mm
Disease spot inhibiting rate (Gray mold fungus [9]; 100 ppm): 81%
minimum inhibitory concentration (MIC) (Candida albicans; 48 hours): > 100 µg/mL
minimum inhibitory concentration (MIC) (Candida albicans; 72 hours): > 100 µg/mL
minimum inhibitory concentration (MIC) (Holmodendrum pedrosei; 48 hours): 25 µg/mL (≈ 114 µM)
minimum inhibitory concentration (MIC) (Holmodendrum pedrosei; 72 hours): 25 µg/mL (≈ 114 µM)
phytotoxicity to crops (crops): does not give phytotoxicity to crops
minimum inhibitory concentration (MIC) (Sclerotinia cinerea [10]): 25 µg/mL (≈ 114 µM)
minimum inhibitory concentration (MIC) (Escherichia coli NIHJ; 24 hours): 100 µg/mL (≈ 456 µM)
minimum inhibitory concentration (MIC) (Escherichia coli NIHJ; 48 hours): > 100 µg/mL
minimum inhibitory concentration (MIC) (Xanthomonas citri; 48 hours): > 100 µg/mL
minimum inhibitory concentration (MIC) (Xanthomonas citri; 72 hours): > 100 µg/mL

CC1(C)OC(=O)N(c2cc(Cl)cc(Cl)c2)C1=O [Sclex, 3-(3,5-dichlorophenyl)-5,5-dimethyloxazolidinedione-2,4]
Morbidity upon harvest ([3]; 20% product × 1500): 0.03
Morbidity after 7 days since packaging ([3]; 20% product × 1500): 7.7
Diameter of the disease spot after spraying (Gray mold fungus [9]; 20% product × 1000 (200 ppm)): 17.7 mm
Disease spot inhibiting rate (Gray mold fungus [9]; 20% product × 1000 (200 ppm)): 61%
